Laboratory results from ChEMBL document CHEMBL5126526, “Non-nucleoside structured compounds with antiviral activity-past 10 years (2010-2020)” (2022).

Tested on: Influenza A virus
Experiment: Antiviral activity against influenza A virus (A/California/04/2009 (H1N1pdm)) infected in BALB/c mouse assessed as fold reduction in viral titers in lung homogenates at 20 mg/kg per day, po BID treated 2 hrs prior to viral infection followed by compound redosing at 12 hrs for 6 days
Format: functional

O=C(O)[C@H]1C2CCC(CC2)[C@@H]1Nc1nc(-c2c[nH]c3ncc(F)cc23)ncc1F [PIMODIVIR]
fold change (FC): 100
